# Columns and labels:
# GP2D (KRAS G12D) cells = assay: 2D cell viability assay (CellTiter-Glo); format: cell-based; settings: GP2d, 96 h, 4 days
# Procedure, shortened: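 Viability was read by CellTiter-Glo after 4 days at 37 °C of 2D culture of KRAS G12D GP2D cells (1000/well, RPMI, 10% FBS) on pre-spotted threefold compound dilutions. EC50 was fitted with a sigmoidal dose-response model as the point of half-maximal luminescence loss.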
# GDP-loaded KRAS G12D = GDP-loaded KRAS G12D (Homo sapiens (Human), UniProt P01116, G12D); assay: KRAS G12D (GDP) biochemical assay (TR-FRET probe displacement); format: binding; settings: 2 hours
# Procedure, shortened: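 TR-FRET probe displacement: 1:3 DMSO serial dilutions pre-incubated 30 min with GDP-bound KRAS G12D, followed by Eu-streptavidin/probe for 2 h at room temperature (Hepes pH 7.4, NaCl, MgCl2, Tween-20 buffer). IC50 defined as concentration halving TR-FRET ratio, from sigmoidal dose-response fit.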
# GDP-loaded KRAS G12D, sequence (P01116-2 other isoform, or with tags, fused parts or gaps G12D): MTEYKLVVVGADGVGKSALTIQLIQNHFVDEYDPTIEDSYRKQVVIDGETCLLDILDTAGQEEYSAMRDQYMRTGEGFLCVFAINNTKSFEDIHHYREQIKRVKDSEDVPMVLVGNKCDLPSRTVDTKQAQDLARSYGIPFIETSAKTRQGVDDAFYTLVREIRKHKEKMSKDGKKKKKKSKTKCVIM
SMILES,EC50 (GP2D (KRAS G12D) cells) [nM],IC50 (GDP-loaded KRAS G12D) [nM]
"Fc1ccc2c(-c3nc4c5c(nc(OC[C@@]67CCCN6C[C@H](F)C7)nc5c3F)N3C[C@H]5CC[C@H](N5)[C@H]3CO4)cccc2c1 [Example 66, (5aS,6S,9R)-1-fluoro-2-(6-fluoronaphthalen-1-yl)-12-(((2R,7aS)-2-fluorotetrahydro-1H-pyrrolizin-7a(5H)-yl)methoxy)-5a,6,7,8,9,10-hexahydro-5H-4-oxa-3,10a,11,13,14-pentaaza-6,9-methanonaphtho[1,8-ab]heptalene]",> 1000,860
"C#Cc1c(F)ccc2cc(O)cc(-c3nc4c5c(nc(OC[C@@]67CCCN6C[C@H](F)C7)nc5c3F)N3C[C@H]5CC[C@H](N5)[C@@H]3[C@H](CC)C4)c12 [Example 90, 4-((5R,5aS,6S,9R)-5-ethyl-1-fluoro-12-(((2R,7aS)-2-fluorotetrahydro-1H-pyrrolizin-7a(5H)-yl)methoxy)-4,5,5a,6,7,8,9,10-octahydro-3,10a,11,13,14-pentaaza-6,9-methanonaphtho[1,8-ab]heptalen-2-yl)-5-ethynyl-6-fluoronaphthalen-2-ol]",1000,100
"Oc1cc(-c2nc3c4c(nc(OC[C@@]56CCCN5C[C@H](F)C6)nc4c2F)N2C[C@H]4CC[C@H](N4)[C@H]2CC3)c2c(OC3CC3)c(F)ccc2c1 [Example 37, 5-cyclopropoxy-6-fluoro-4-((5aR,6S,9R)-1-fluoro-12-(((2R,7aS)-2-fluorotetrahydro-1H-pyrrolizin-7a(5H)-yl)methoxy)-4,5,5a,6,7,8,9,10-octahydro-3,10a,11,13,14-pentaaza-6,9-methanonaphtho[1,8-ab]heptalen-2-yl)naphthalen-2-ol]",9,1
"C#Cc1c(F)ccc2cccc(-c3nc4c5c(nc(OCC6(CN7CCC(OC(F)(F)F)CC7)CC6)nc5c3F)N3C[C@H]5CC[C@H](N5)[C@H]3CC4)c12 [Example 107, (5aR,6S,9R)-2-(8-ethynyl-7-fluoronaphthalen-1-yl)-1-fluoro-12-((1-((4-(trifluoromethoxy)piperidin-1-yl)methyl)cyclopropyl)methoxy)-4,5,5a,6,7,8,9,10-octahydro-3,10a,11,13,14-pentaaza-6,9-methanonaphtho[1,8-ab]heptalene]",460,7.2
"Oc1cc(-c2nc3c4c(nc(OC[C@@]56CCCN5C[C@H](F)C6)nc4c2F)N2C[C@H]4CC[C@H](N4)[C@H]2CO3)c2c(CC3CC3)c(F)ccc2c1 [Example 14, 5-(cyclopropylmethyl)-6-fluoro-4-((5aS,6S,9R)-1-fluoro-12-(((2R,7aS)-2-fluorotetrahydro-1H-pyrrolizin-7a(5H)-yl)methoxy)-5a,6,7,8,9,10-hexahydro-5H-4-oxa-3,10a,11,13,14-pentaaza-6,9-methanonaphtho[1,8-ab]heptalen-2-yl)naphthalen-2-ol]",530,34
"Oc1cc(-c2nc3c4c(nc(OC[C@@]56CCCN5C[C@H](F)C6)nc4c2F)N2C[C@H]4CC[C@H](N4)[C@H]2CC3)c2c(CC(F)(F)F)c(F)ccc2c1 [Example 50, 6-fluoro-4-((5aR,6S,9R)-1-fluoro-12-(((2R,7aS)-2-fluorotetrahydro-1H-pyrrolizin-7a(5H)-yl)methoxy)-4,5,5a,6,7,8,9,10-octahydro-3,10a,11,13,14-pentaaza-6,9-methanonaphtho[1,8-ab]heptalen-2-yl)-5-(2,2,2-trifluoroethyl)naphthalen-2-ol]",24,3
"C#Cc1c(F)ccc2cc(O)cc(-c3c(Cl)c4c5c(nc(OC[C@@]67CCCN6C[C@H](F)C7)nc5c3F)N3C[C@H]5CC[C@H](N5)[C@H]3CC4)c12 [Example 204, 4-((1S,4R,14aR)-12-chloro-10-fluoro-8-(((2R,7aS)-2-fluorotetrahydro-1H-pyrrolizin-7a(5H)-yl)methoxy)-1,2,3,4,5,13,14,14a-octahydro-1,4-epiminoazepino[1′,2′:1,7]azepino[2,3,4-de]quinazolin-11-yl)-5-ethynyl-6-fluoronaphthalen-2-ol]",1.3,0.1
"C#Cc1c(F)ccc2cccc(-c3nc4c5c(nc(OC[C@@]67CCCN6[C@H](COc6cc(C(F)(F)F)ncn6)CC7)nc5c3F)N3C[C@H]5CC[C@H](N5)[C@H]3CC[C@H]4C)c12 [Example 203, (4R,6aR,7S,10R)-2-(8-ethynyl-7-fluoronaphthalen-1-yl)-1-fluoro-4-methyl-13-(((3S,7aS)-3-(((6-(trifluoromethyl)pyrimidin-4-yl)oxy)methyl)tetrahydro-1H-pyrrolizin-7a(5H)-yl)methoxy)-5,6,6a,7,8,9,10,11-octahydro-4H-3,11a,12,14,15-pentaaza-7,10-methanocyclohepta[4,5]cycloocta[1,2,3-de]naphthalene]",1.2,0.12
"Fc1cccc2c(-c3nc4c5c(nc(OC[C@@]67CCCN6C[C@H](F)C7)nc5c3F)N3C[C@H]5CC[C@H](N5)[C@H]3CO4)cccc12 [Example 31, (5aS,6S,9R)-1-fluoro-2-(5-fluoronaphthalen-1-yl)-12-(((2R,7aS)-2-fluorotetrahydro-1H-pyrrolizin-7a(5H)-yl)methoxy)-5a,6,7,8,9,10-hexahydro-5H-4-oxa-3,10a,11,13,14-pentaaza-6,9-methanonaphtho[1,8-ab]heptalene]",> 1000,4900
"C#Cc1c(F)ccc2cccc(-c3nc4c5c(nc(OCC6(CN7CCC(OC(F)(F)F)CC7)CC6)nc5c3F)N3C[C@H]5CC[C@H](N5)[C@H]3CCC4)c12 [Example 127, (6aR,7S,10R)-2-(8-ethynyl-7-fluoronaphthalen-1-yl)-1-fluoro-13-((1-((4-(trifluoromethoxy)piperidin-1-yl)methyl)cyclopropyl)methoxy)-5,6,6a,7,8,9,10,11-octahydro-4H-3,11a,12,14,15-pentaaza-7,10-methanocyclohepta[4,5]cycloocta[1,2,3-de]naphthalene]",88.9,1.6
"C#Cc1c(F)ccc2cccc(-c3nc4c5c(nc(OC[C@@]67CCCN6C[C@H](F)C7)nc5c3F)N3C[C@H]5CC[C@H](N5)[C@@H]3[C@@H](C)CC4)c12 [Example 156, (6S,6aS,7S,10R)-2-(8-ethynyl-7-fluoronaphthalen-1-yl)-1-fluoro-13-(((2R,7aS)-2-fluorotetrahydro-1H-pyrrolizin-7a(5H)-yl)methoxy)-6-methyl-5,6,6a,7,8,9,10,11-octahydro-4H-3,11a,12,14,15-pentaaza-7,10-methanocyclohepta[4,5]cycloocta[1,2,3-de]naphthalene]",100,100
"C#Cc1c(F)ccc2cccc(-c3nc4c5c(nc(OC[C@@]67CCCN6[C@H](COC(C6CC6)C(F)(F)F)CC7)nc5c3F)N3C[C@H]5CC[C@H](N5)[C@H]3CCC4)c12 (stereo partly drawn) [Example 117, (6aR,7S,10R)-13-(((3S,7aS)-3-((1-cyclopropyl-2,2,2-trifluoroethoxy)methyl)tetrahydro-1H-pyrrolizin-7a(5H)-yl)methoxy)-2-(8-ethynyl-7-fluoronaphthalen-1-yl)-1-fluoro-5,6,6a,7,8,9,10,11-octahydro-4H-3,11a,12,14,15-pentaaza-7,10-methanocyclohepta[4,5]cycloocta[1,2,3-de]naphthalene]",8.5,0.1
